In patent publication US12398154B2, “Azaquinazoline pan-KRas inhibitors” (Mirati Therapeutics, Inc., priority 2020, dated 2025):
Like-named read-outs stand apart in the source and are kept apart here.

Columns and labels:
[1] = target: T1, KRas G13D (Homo sapiens, UniProt P01116, G13D); test: KRas binding assay (TR-FRET displacement);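 note: One-hour room temperature incubation before TR-FRET reading, IC50 from a four-parameter curve fit to percent-of-control data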
T1 construct: Biotinylated KRas (corresponding to amino acids 1-169, produced at Accelegan Inc.); biotin (biotinylated); purchased Accelegan Inc
T1 sequence (P01116 1-169 isoform P01116-2 G13D): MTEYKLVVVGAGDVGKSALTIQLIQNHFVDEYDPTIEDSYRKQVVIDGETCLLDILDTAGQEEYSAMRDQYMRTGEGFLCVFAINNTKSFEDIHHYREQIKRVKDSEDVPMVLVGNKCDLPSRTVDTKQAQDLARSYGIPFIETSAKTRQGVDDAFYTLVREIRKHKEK
Method: (§2) The ability of a compound to bind to KRas was measured using a TR-FRET displacement assay. […] After a 60-minute incubation at room temperature, the reaction was measured using a BMG LABTECH CLARIO star Plus via TR-FRET. […] The POC values were fit to a 4-parameter IC50 equation and the IC50 value reported.

[2] = target: T2, KRas Q61H (Homo sapiens, UniProt P01116, Q61H); test: KRas binding assay (TR-FRET displacement);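 note: TR-FRET signal read after one hour at room temperature, IC50 derived by four-parameter fitting of percent-of-control values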
T2 construct: Biotinylated KRas (corresponding to amino acids 1-169, produced at Accelegan Inc.); biotin (biotinylated); purchased Accelegan Inc
T2 sequence (P01116 1-169 isoform P01116-2 Q61H): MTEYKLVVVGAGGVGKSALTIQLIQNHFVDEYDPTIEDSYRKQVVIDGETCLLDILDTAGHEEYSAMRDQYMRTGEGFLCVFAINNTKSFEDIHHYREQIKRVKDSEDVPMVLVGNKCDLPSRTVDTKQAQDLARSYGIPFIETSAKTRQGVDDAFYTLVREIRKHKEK
Method: as §2

[3] = system: phospho-ERK in A549 (G12S) cells; test: Inhibition of KRas-mediated phosphorylation of ERK (in-cell western); format: cell-based; settings: Homo sapiens, 3 hours compound, phospho-ERK normalized to GAPDH
Summary of the method: (§1)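 Following fixation in formaldehyde and permeabilization in cold methanol, ERK phosphorylated at Thr202/Tyr204 was quantified against GAPDH.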

[4] = system: phospho-ERK in AsPC-1 (G12D) cells; test: as above; format: cell-based; settings: 3 hours compound, phospho-ERK normalized to GAPDH
Summary of the method: as §1

[5] = system: phospho-ERK in HCT116 (G13D) cells; test: as above; format: cell-based; settings: Homo sapiens, HCT-116, 3 hours compound, phospho-ERK normalized to GAPDH
Summary of the method: as §1

[6] = system: phospho-ERK in MKN1 (WTdep) cells; test: as above; format: cell-based; settings: Homo sapiens, MKN-1, 3 hours compound, phospho-ERK normalized to GAPDH
Summary of the method: as §1

[7] = system: phospho-ERK in NCI-H358 (G12C) cells; test: as above; format: cell-based; settings: Homo sapiens, 3 hours compound, phospho-ERK normalized to GAPDH
Summary of the method: as §1

[8] = system: phospho-ERK in NCI-H460 (Q61H) cells; test: as above; format: cell-based; settings: 3 hours compound, phospho-ERK normalized to GAPDH
Summary of the method: as §1

[9] = system: phospho-ERK in NCI-H727 (G12V) cells; test: as above; format: cell-based; settings: 3 hours compound, phospho-ERK normalized to GAPDH
Summary of the method: as §1

[10] = system: phospho-ERK in PSN-1 (G12R) cells; test: as above; format: cell-based; settings: Homo sapiens, PSN1, 3 hours compound, phospho-ERK normalized to GAPDH
Summary of the method: as §1

[11] = target: KRas G12D (Homo sapiens, UniProt P01116, G12D); test: biochemical;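 note: TR-FRET displacement binding assay on KRas, read after a one-hour incubation at room temperature, IC50 fitted from percent-of-control values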
Chain of KRas G12D (P01116 1-169 isoform P01116-2 G12D): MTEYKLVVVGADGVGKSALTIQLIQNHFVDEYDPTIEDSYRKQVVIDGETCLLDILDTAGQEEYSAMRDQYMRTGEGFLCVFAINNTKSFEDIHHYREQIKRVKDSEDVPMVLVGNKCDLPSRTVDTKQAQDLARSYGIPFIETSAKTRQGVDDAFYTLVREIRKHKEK
Method: as §2

[12] = target: T3, KRas G12V (Homo sapiens, UniProt P01116, G12V); test: biochemical;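 note: KRas binding measured by TR-FRET displacement at room temperature, IC50 fitted from percent of control values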
T3 sequence (P01116 1-169 isoform P01116-2 G12V): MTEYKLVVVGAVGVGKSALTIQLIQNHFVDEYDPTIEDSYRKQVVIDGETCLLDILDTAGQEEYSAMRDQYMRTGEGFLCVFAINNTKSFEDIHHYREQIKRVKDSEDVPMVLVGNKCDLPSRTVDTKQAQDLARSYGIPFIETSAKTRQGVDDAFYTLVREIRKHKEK
Method: as §2

[13] = target: T4, KRas G12R (Homo sapiens, UniProt P01116, G12R); test: biochemical;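 note: TR-FRET displacement assay of compound binding to KRas, read after one hour at room temperature, potency from a four-parameter fit of percent-of-control values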
T4 sequence (P01116 1-169 isoform P01116-2 G12R): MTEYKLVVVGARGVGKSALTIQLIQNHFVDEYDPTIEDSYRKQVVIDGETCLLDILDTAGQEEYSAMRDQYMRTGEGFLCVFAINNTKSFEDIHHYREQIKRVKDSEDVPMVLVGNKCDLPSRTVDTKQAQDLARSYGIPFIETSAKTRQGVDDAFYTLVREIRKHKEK
Method: as §2

[14] = target: KRas G12A (Homo sapiens, UniProt P01116, G12A); test: biochemical;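 note: binding to KRas measured by TR-FRET displacement after one hour at room temperature, IC50 from a four-parameter fit of percent-of-control values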
Chain of KRas G12A (P01116 1-169 isoform P01116-2 G12A): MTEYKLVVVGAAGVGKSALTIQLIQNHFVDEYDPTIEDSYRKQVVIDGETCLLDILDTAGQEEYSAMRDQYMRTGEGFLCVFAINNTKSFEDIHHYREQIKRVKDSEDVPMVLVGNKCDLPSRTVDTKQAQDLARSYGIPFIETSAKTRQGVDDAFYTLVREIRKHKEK
Method: as §2

[15] = target: KRas G12S (Homo sapiens, UniProt P01116, G12S); test: biochemical;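 note: TR-FRET displacement binding to KRas, read after one hour incubation at room temperature, IC50 from four-parameter fit of percent of control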
Chain of KRas G12S (P01116 1-169 isoform P01116-2 G12S): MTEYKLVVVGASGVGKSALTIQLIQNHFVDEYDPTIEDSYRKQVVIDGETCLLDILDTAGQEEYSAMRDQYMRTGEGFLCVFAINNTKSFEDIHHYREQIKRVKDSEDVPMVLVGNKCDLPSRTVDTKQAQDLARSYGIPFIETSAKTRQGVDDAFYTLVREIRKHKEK
Method: as §2

[16] = target: KRas G12C (Homo sapiens, UniProt P01116, G12C); test: biochemical;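 note: binding to KRas assessed by TR-FRET displacement after one hour incubation at room temperature, potency fitted from percent-of-control values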
Chain of KRas G12C (P01116 1-169 isoform P01116-2 G12C): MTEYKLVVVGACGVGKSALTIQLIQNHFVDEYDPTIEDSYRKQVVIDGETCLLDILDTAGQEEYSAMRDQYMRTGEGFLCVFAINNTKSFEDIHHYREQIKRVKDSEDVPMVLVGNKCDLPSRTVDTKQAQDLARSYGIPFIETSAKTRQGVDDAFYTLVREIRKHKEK
Method: as §2

[17] = target: KRas WT (Homo sapiens, UniProt P01116); test: biochemical;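 note: binding to KRas read as TR-FRET displacement after a one-hour room-temperature incubation, IC50 derived from percent-of-control values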
Chain of KRas WT (P01116 1-169 isoform P01116-2): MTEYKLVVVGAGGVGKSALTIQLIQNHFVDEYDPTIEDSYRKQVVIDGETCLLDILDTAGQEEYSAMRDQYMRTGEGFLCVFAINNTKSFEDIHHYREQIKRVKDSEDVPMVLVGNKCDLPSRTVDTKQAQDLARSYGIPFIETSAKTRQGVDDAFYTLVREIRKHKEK
Method: as §2

[18] = system: pERK in MKN1 cells; test: Inhibition of KRas phosphorylation of ERK (Cisbio HTRF pERK assay); settings: Homo sapiens, MKN-1, 3 h, read-out: Inhibition (HTRF IC50) of KRas-mediated Phosphorylation of ERK, MKN1
[19] = system: pERK in PSN1 cells; test: as above; settings: Homo sapiens, PSN1, 3 h, read-out: Inhibition (HTRF IC50) of KRas-mediated Phosphorylation of ERK, PSN1
[20] = system: pERK in ASPC1 cells; test: as above; settings: Homo sapiens, ASPC1, read-out: Inhibition (HTRF IC50) of KRas-mediated Phosphorylation of ERK, AsPC-1
[21] = system: pERK in H727 cells; test: as above; settings: Homo sapiens, NCI-H727, read-out: Inhibition (HTRF IC50) of KRas-mediated Phosphorylation of ERK, H727
[22] = system: pERK in A549 cells; test: as above; settings: Homo sapiens, A549, read-out: Inhibition (HTRF IC50) of KRas-mediated Phosphorylation of ERK, A549
[23] = system: pERK in H460 cells; test: as above; settings: Homo sapiens, NCI-H460, read-out: Inhibition (HTRF IC50) of KRas-mediated Phosphorylation of ERK, H460
[24] = system: pERK in HCT116 cells; test: as above; settings: Homo sapiens, HCT-116, read-out: Inhibition (HTRF IC50) of KRas-mediated Phosphorylation of ERK, HCT116
[25] = system: pERK in H358 cells; test: as above; settings: Homo sapiens, NCI-H358, read-out: Inhibition (HTRF IC50) of KRas-mediated Phosphorylation of ERK, H358
[26] = target: T3, KRas G12V
Method: as §2

[27] = target: T4, KRas G12R
Method: as §2

IC50 [1]	IC50 [2]	IC50 [11]	IC50 [12]	IC50 [13]	IC50 [18]	IC50 [19]	IC50 [20]	IC50 [21]	IC50 [22]	IC50 [23]	IC50 [24]	SMILES	IC50 [3]	IC50 ([4]; Homo sapiens, ASPC1, 3 h)	IC50 [5]	IC50 [6]	IC50 [7]	IC50 ([8]; Homo sapiens, NCI-H460, 3 h)	IC50 ([9]; Homo sapiens, NCI-H727, 3 h)	IC50 [10]	further results
≤ 2 nM	≤ 2 nM	≤ 2 nM	≤ 2 nM	≤ 2 nM	5 nM	1090 nM	4 nM	13 nM	43 nM	27 nM	33 nM	C#Cc1c(F)ccc2cc(O)cc(-c3ncc4c(N5CCC[C@@](C)(O)C5)nc(OC[C@@]56CCCN5C[C@H](F)C6)nc4c3F)c12 [Example 13]	140 nM	18 nM	42 nM	10 nM	11 nM	13 nM	44 nM	773 nM	IC50 [14]: ≤ 2 nM; IC50 [15]: ≤ 2 nM; IC50 [16]: ≤ 2 nM; IC50 [17]: ≤ 2 nM
3 nM	3 nM	3 nM	≤ 2 nM	3 nM	21 nM	7250 nM	20 nM	159 nM	156 nM	101 nM	155 nM	CCc1c(F)ccc2cc(O)cc(-c3ncc4c(N5CCC[C@@](C)(O)C5)nc(OC[C@@H]5CCCN5C)nc4c3F)c12 [Example 28, (3R)-1-[7-(8-ethyl-7-fluoro-3-hydroxy-1-naphthyl)-8-fluoro-2-[[(2S)-1-methylpyrrolidin-2-yl]methoxy]pyrido[4,3-d]pyrimidin-4-yl]-3-methyl-piperidin-3-ol]	523 nM	78 nM	153 nM	24 nM	60 nM	54 nM	308 nM	≥ 10000 nM	IC50 [14]: ≤ 2 nM; IC50 [15]: ≤ 2 nM; IC50 [16]: ≤ 2 nM; IC50 [17]: 3 nM
3 nM	≤ 2 nM	≤ 2 nM	≤ 2 nM	≤ 2 nM			32 nM	55 nM	175 nM	119 nM	2010 nM	CCc1c(F)ccc2cc(O)cc(-c3ncc4c(N5CCCC6(CC(=O)N6)C5)nc(OC[C@@]56CCCN5C[C@H](F)C6)nc4c3F)c12 (some centres unmarked) [Example 57]	668 nM	82 nM	1080 nM	22 nM	50 nM	119 nM	115 nM	4140 nM	
							4 nM	28 nM	19 nM	21 nM	63 nM	CCc1c(F)ccc2cc(O)cc(-c3ncc4c(N5CCOCC(C)(O)C5)nc(OC[C@@]56CCCN5C[C@H](F)C6)nc4c3F)c12 (some centres unmarked) [Example 63]	139 nM	15 nM	44 nM	5 nM	27 nM	38 nM	56 nM	1040 nM	
		≤ 2 nM	≤ 2 nM	≤ 2 nM	6 nM	2320 nM	15 nM	16 nM	15 nM	22 nM	106 nM	CCc1c(F)ccc2cc(O)cc(-c3ncc4c(N5CC6CC(O)C(C6)C5)nc(OC[C@@]56CCCN5C[C@H](F)C6)nc4c3F)c12 (some centres unmarked) [Example 82]	25 nM	18 nM	216 nM	10 nM	3 nM	180 nM	65 nM	1740 nM	IC50 [25]: 10 nM
		4 nM	≤ 2 nM	3 nM			25 nM	111 nM	290 nM	180 nM	276 nM	C#Cc1c(F)ccc2cc(O)cc(-c3ncc4c(N5CCOCC(C)(O)C5)nc(OC[C@@]56CCCN5C[C@H](F)C6)nc4c3F)c12 (some centres unmarked) [Example 149]	83 nM	9 nM	292 nM	16 nM	10 nM	71 nM	206 nM	1760 nM	
		≤ 2 nM	≤ 2 nM	≤ 2 nM			125 nM	72 nM		143 nM	349 nM	CCc1c(F)ccc2cc(O)cc(-c3ncc4c(NCc5ccc6nccn6c5)nc(OC[C@@]56CCCN5C[C@H](F)C6)nc4c3F)c12 [Example 156, 5-ethyl-6-fluoro-4-(8-fluoro-2-(((2R,7aS)-2-fluorohexahydro-1H-pyrrolizin-7a-yl)methoxy)-4-((imidazo[1,2-a]pyridin-6-ylmethyl)amino)pyrido[4,3-d]pyrimidin-7-yl)naphthalen-2-ol]	33 nM	335 nM	323 nM	14 nM	10 nM	141 nM	189 nM	≥ 10000 nM	
		4 nM			53 nM	≥ 10000 nM						CCc1c(F)ccc2cc(O)cc(-c3ncc4c(N5C[C@H](O)C[C@@H](O)C5)nc(OC[C@@]56CCCN5C[C@H](F)C6)nc4c3F)c12 [Example 296, (3R,5R)-1-(7-(8-ethyl-7-fluoro-3-hydroxynaphthalen-1-yl)-8-fluoro-2-(((2R,7aS)-2-fluorohexahydro-1H-pyrrolizin-7a-yl)methoxy)pyrido[4,3-d]pyrimidin-4-yl)piperidine-3,5-diol]									IC50 [4]: 2200 nM; IC50 [8]: 619 nM; IC50 [9]: 2080 nM; IC50 [26]: ≤ 2 nM; IC50 [27]: ≤ 2 nM
